Reference: the NIST ThermoML archive (doi:10.1016/j.fluid.2015.04.017)
± gives the expanded uncertainty stated by the source.

Assays:
[1] = 298.15 K, 101.33 kPa, Liquid; for viscosity: Concentric cylinders viscometry; for mass density: Vibrating tube method
[2] = refractive index (Na D-line) (dimensionless); conditions: 298.15 K; 101.33 kPa; Liquid; Standard Abbe refractometry
[3] = refractive index (Na D-line) (dimensionless); xn = mol fraction of the nth substance listed; conditions: 101 kPa, Liquid, Standard Abbe refractometry, x2 = 0
[4] = xn = mol fraction of the nth substance listed; conditions: 101 kPa, Liquid, x2 = 0; for viscosity: Concentric cylinders viscometry; for mass density: Vibrating tube method

SMILES: CCOC(=O)C(C)O (racemic) [DL-ethyl lactate]
- viscosity [1]: 2.39 ± 0.025 mPa·s
- mass density [1]: 1028.39 ± 0.25 kg/m3
- refractive index [2]: 1.41076 ± 0.00037

SMILES: CN1CCCC1=O [N-methylpyrrolidone]
- viscosity [1]: 1.757 ± 0.017 mPa·s
- mass density [1]: 1030.45 ± 0.099 kg/m3
- refractive index [2]: 1.4687 ± 0.00033

SMILES: CN1CCCC1=O [N-methylpyrrolidone] + CCOC(=O)C(C)O
- refractive index ([3]; 288.15 K): 1.47305 ± 0.00033
- refractive index ([3]; 293.15 K): 1.47088 ± 0.00033
- refractive index ([3]; 298.15 K): 1.4687 ± 0.00033
- refractive index ([3]; 303.15 K): 1.46651 ± 0.00033
- refractive index ([3]; 308.15 K): 1.46434 ± 0.00033
- refractive index ([3]; 313.15 K): 1.46211 ± 0.00033
- refractive index ([3]; 318.15 K): 1.45998 ± 0.00033
- refractive index ([3]; 323.15 K): 1.45783 ± 0.00033
- viscosity ([4]; 288.15 K): 2.088 ± 0.02 mPa·s
- mass density ([4]; 288.15 K): 1039.4 ± 0.1 kg/m3
- viscosity ([4]; 293.15 K): 1.91 ± 0.018 mPa·s
- mass density ([4]; 293.15 K): 1034.92 ± 0.099 kg/m3
- viscosity ([4]; 298.15 K): 1.757 ± 0.017 mPa·s
- mass density ([4]; 298.15 K): 1030.45 ± 0.096 kg/m3
- viscosity ([4]; 303.15 K): 1.623 ± 0.016 mPa·s
- mass density ([4]; 303.15 K): 1025.99 ± 0.094 kg/m3
- viscosity ([4]; 308.15 K): 1.505 ± 0.015 mPa·s
- mass density ([4]; 308.15 K): 1021.52 ± 0.092 kg/m3
- viscosity ([4]; 313.15 K): 1.401 ± 0.014 mPa·s
- mass density ([4]; 313.15 K): 1017.07 ± 0.09 kg/m3
- viscosity ([4]; 318.15 K): 1.307 ± 0.013 mPa·s
- mass density ([4]; 318.15 K): 1012.61 ± 0.088 kg/m3
- viscosity ([4]; 323.15 K): 1.231 ± 0.013 mPa·s
- mass density ([4]; 323.15 K): 1008.16 ± 0.086 kg/m3

SMILES: CCC(C)=O [butanone]
- viscosity [1]: 0.3888 ± 0.0057 mPa·s
- mass density [1]: 800.872 ± 0.14 kg/m3
- refractive index [2]: 1.37662 ± 0.00033

SMILES: CCC(C)=O [butanone] + CCOC(=O)C(C)O
- refractive index ([3]; 288.15 K): 1.3817 ± 0.00033
- refractive index ([3]; 293.15 K): 1.37918 ± 0.00033
- refractive index ([3]; 298.15 K): 1.37662 ± 0.00033
- refractive index ([3]; 303.15 K): 1.37402 ± 0.00033
- refractive index ([3]; 308.15 K): 1.37138 ± 0.00033
- refractive index ([3]; 313.15 K): 1.36871 ± 0.00033
- refractive index ([3]; 318.15 K): 1.36615 ± 0.00033
- refractive index ([3]; 323.15 K): 1.36338 ± 0.00033
- viscosity ([4]; 288.15 K): 0.4217 ± 0.0059 mPa·s
- mass density ([4]; 288.15 K): 811.324 ± 0.14 kg/m3
- viscosity ([4]; 293.15 K): 0.4054 ± 0.0058 mPa·s
- mass density ([4]; 293.15 K): 806.111 ± 0.14 kg/m3
- viscosity ([4]; 298.15 K): 0.3888 ± 0.0057 mPa·s
- mass density ([4]; 298.15 K): 800.872 ± 0.14 kg/m3
- viscosity ([4]; 303.15 K): 0.3712 ± 0.0055 mPa·s
- mass density ([4]; 303.15 K): 795.603 ± 0.14 kg/m3
- viscosity ([4]; 308.15 K): 0.3542 ± 0.0054 mPa·s
- mass density ([4]; 308.15 K): 790.3 ± 0.14 kg/m3
- viscosity ([4]; 313.15 K): 0.3368 ± 0.0053 mPa·s
- mass density ([4]; 313.15 K): 784.965 ± 0.15 kg/m3
- viscosity ([4]; 318.15 K): 0.3194 ± 0.0052 mPa·s
- mass density ([4]; 318.15 K): 779.589 ± 0.15 kg/m3
- viscosity ([4]; 323.15 K): 0.3036 ± 0.0051 mPa·s
- mass density ([4]; 323.15 K): 774.175 ± 0.15 kg/m3

SMILES: Cc1ccccc1 [toluene]
- viscosity [1]: 0.567 ± 0.007 mPa·s
- mass density [1]: 862.206 ± 0.12 kg/m3
- refractive index [2]: 1.49299 ± 0.00033

SMILES: Cc1ccccc1 [toluene] + CCOC(=O)C(C)O
- refractive index ([3]; 288.15 K): 1.49883 ± 0.00033
- refractive index ([3]; 293.15 K): 1.49592 ± 0.00033
- refractive index ([3]; 298.15 K): 1.49299 ± 0.00033
- refractive index ([3]; 303.15 K): 1.49012 ± 0.00033
- refractive index ([3]; 308.15 K): 1.48731 ± 0.00033
- refractive index ([3]; 313.15 K): 1.48454 ± 0.00033
- refractive index ([3]; 318.15 K): 1.48195 ± 0.00033
- refractive index ([3]; 323.15 K): 1.47928 ± 0.00033
- viscosity ([4]; 288.15 K): 0.6251 ± 0.0075 mPa·s
- mass density ([4]; 288.15 K): 871.501 ± 0.12 kg/m3
- viscosity ([4]; 293.15 K): 0.5961 ± 0.0072 mPa·s
- mass density ([4]; 293.15 K): 866.859 ± 0.12 kg/m3
- viscosity ([4]; 298.15 K): 0.567 ± 0.007 mPa·s
- mass density ([4]; 298.15 K): 862.206 ± 0.12 kg/m3
- viscosity ([4]; 303.15 K): 0.54 ± 0.0068 mPa·s
- mass density ([4]; 303.15 K): 857.541 ± 0.12 kg/m3
- viscosity ([4]; 308.15 K): 0.5128 ± 0.0066 mPa·s
- mass density ([4]; 308.15 K): 852.861 ± 0.13 kg/m3
- viscosity ([4]; 313.15 K): 0.4866 ± 0.0064 mPa·s
- mass density ([4]; 313.15 K): 848.164 ± 0.13 kg/m3
- viscosity ([4]; 318.15 K): 0.462 ± 0.0062 mPa·s
- mass density ([4]; 318.15 K): 843.444 ± 0.13 kg/m3
- viscosity ([4]; 323.15 K): 0.4435 ± 0.0061 mPa·s
- mass density ([4]; 323.15 K): 838.707 ± 0.13 kg/m3
